Our source for the virus elimination rate and viral clearance values is patent publication US20230158020A1, “Method for treating RNA viral infections, including COVID-19 (SARS-CoV-2)” (priority 2020, published 2023).

Each structure is given as a SMILES string. Where two headings read alike, the source gives them in different places.

For one assay, the system named is SARS-CoV-2. The format is in vivo.
A further assay has as its system COVID-19. Particulars: patients with confirmed COVID-19; FVP orally 1600 mg twice a day on day 1, 600 mg twice a day days 2-14, plus interferon-α aerosol 5 million units twice a day; control lopinavir/ritanovir 400 mg/100 mg twice a day; cited from earlier work.

On to `NC(=O)c1nc(F)c[nH]c1=O` [FVP, Favipiravir], for which the virus elimination rate in the assay with SARS-CoV-2 (patients with FVP dose <43 mg/kg on day 1) came to 44%; in the assay on SARS-CoV-2 (patients with FVP dose ≥43 mg/kg on day 1) it was 79%. Moreover, the viral clearance with COVID-19 is listed as 4 days.
